Test results reported in patent US20200331882A1, “COMPOUND FOR SIMULTANEOUSLY INHIBITING LSD1 AND HDAC TARGETS AND APPLICATION THEREOF” (PEKING UNIVERSITY SHENZHEN GRADUATE SCHOOL, priority 2018, published 2020).
Read-outs that look alike come from different tables or passages of the source.

Legend:
Assay type in all cases: cell-based
U-937 = experiment: CellTiter-Glo cell proliferation; conditions: CTG, 72 hours; for % inhibition at top conc.: highest concentration 10/50 μM; for IC50: read-out: Absolute IC50
Description: (§1) The effect of the present invention compound ZZY-003 on the cell proliferation of 50 cell lines was evaluated by CellTiter-Glo (CTG) method, and the 50% inhibitory concentration was calculated by detecting the cell viability after treatment with different drug concentrations. The cells were resuscitated and cultured in their respective culture media. The cells in logarithmic growth phase were harvested and the cells were counted by cell counter. The cell viability was detected by Trypan blue exclusion method to ensure that the cell line viability was more than 96%. The cell concentration was adjusted by diluting with the culture medium, and 90 μL cell suspension was added to the 96-well cell plate (including the cell control T0 on the day of drug treatment) to make the cell density reach the specified concentration. The cells in the 96-well plate were cultured overnight at 37° C., 5% CO2 and 95% humidity. 10 μL culture medium was added to the control cell culture plate. CellTiter-Glo reagent and cell culture plate were placed at room temperature to balance for 30 minutes. The same volume of CellTiter-Glo reagent was added to each well. Vibrate on the orbital shaker for 2 min to make the cells fully lytic. The cell culture plate was placed at room temperature to balance for 10 minutes. Chemiluminescence values were read with EnVision. The storage solution was formed by dissolving the tested compound with the corresponding solvent and diluted in gradient to obtain 10 times working concentration solution, and 10 times solution of positive drug was also prepared. 10 μL drug solution was added to each well in the 96-well plate in which the cells were inoculated, and each cell concentration was provided with three duplicate wells. The highest concentration of the tested compound was 10/50 μM, 9 concentrations and 3.16 times dilution. The cells in the 96-well plate added with drug were cultured at 37° C., 5% CO2 and 95% humidity for 72 hours. CellTiter-Glo reagent and drug-treated cell culture plate were placed at room temperature to balance for 30 minutes. The same volume of CellTiter-Glo reagent was added to each well. Vibrate on the orbital shaker for 2 minutes to make the cells fully lytic. The cell culture plate was placed at room temperature to balance for 10 minutes. Chemiluminescence values were read with EnVision. Data processing: […] Cell survival rate (%)=(Lum drug to be detected−Lum culture medium control)/(Lum cell control−Lum culture medium control)×100%; Lum cell control−Lum culture medium control was set to 100%, LumMedium control value was set to 0%;

5637 = experiment: CellTiter-Glo cell proliferation; conditions: CTG, 72 hours; for % inhibition at top conc.: highest concentration 10/50 μM; for IC50: read-out: Absolute IC50
Description: as §1

NCI-H1417 = experiment: CellTiter-Glo cell proliferation; conditions: CTG, 72 hours; for % inhibition at top conc.: highest concentration 10/50 μM; for IC50: read-out: Absolute IC50
Description: as §1

HL-60 = experiment: CellTiter-Glo cell proliferation; conditions: CTG, 72 hours; for % inhibition at top conc.: highest concentration 10/50 μM; for IC50: read-out: Absolute IC50
Description: as §1

SK-MEL-28 = experiment: CellTiter-Glo cell proliferation; conditions: CTG, 72 hours; for % inhibition at top conc.: highest concentration 10/50 μM; for IC50: read-out: Absolute IC50
Description: as §1

143B = experiment: CellTiter-Glo cell proliferation; conditions: CTG, 72 hours; for % inhibition at top conc.: highest concentration 10/50 μM; for IC50: read-out: Absolute IC50
Description: as §1

EBC-1 = experiment: CellTiter-Glo cell proliferation; conditions: CTG, 72 hours; for % inhibition at top conc.: highest concentration 10/50 μM; for IC50: read-out: Absolute IC50
Description: as §1

AMO-1 = experiment: CellTiter-Glo cell proliferation; conditions: 72 hours; for % inhibition at top conc.: highest concentration 10/50 μM; for IC50: read-out: Absolute IC50
Description: as §1

H69AR = experiment: CellTiter-Glo cell proliferation; conditions: CTG, 72 hours; for % inhibition at top conc.: highest concentration 10/50 μM; for IC50: read-out: Absolute IC50
Description: as §1

SNU-5 = experiment: CellTiter-Glo cell proliferation; conditions: CTG, 72 hours; for % inhibition at top conc.: highest concentration 10/50 μM; for IC50: read-out: Absolute IC50
Description: as §1

MIA PaCa-2 = experiment: CellTiter-Glo cell proliferation; conditions: CTG, 72 hours; for % inhibition at top conc.: highest concentration 10/50 μM; for IC50: read-out: Absolute IC50
Description: as §1

SNU-761 = experiment: CellTiter-Glo cell proliferation; conditions: CTG, 72 hours; for % inhibition at top conc.: highest concentration 10/50 μM; for IC50: read-out: Absolute IC50
Description: as §1

T84 = experiment: CellTiter-Glo cell proliferation; conditions: CTG, 72 hours; for % inhibition at top conc.: highest concentration 10/50 μM; for IC50: read-out: Absolute IC50
Description: as §1

PANC-1 = experiment: CellTiter-Glo cell proliferation; conditions: CTG, 72 hours; for % inhibition at top conc.: highest concentration 10/50 μM; for IC50: read-out: Absolute IC50
Description: as §1

MOLM-13 = experiment: CellTiter-Glo cell proliferation; conditions: CTG, 72 hours; for % inhibition at top conc.: highest concentration 10/50 μM; for IC50: read-out: Absolute IC50
Description: as §1

CNE-2Z = experiment: CellTiter-Glo cell proliferation; conditions: CTG, 72 hours; for % inhibition at top conc.: highest concentration 10/50 μM; for IC50: read-out: Absolute IC50
Description: as §1

Ramos = experiment: CellTiter-Glo cell proliferation; conditions: CTG, 72 hours; for % inhibition at top conc.: highest concentration 10/50 μM; for IC50: read-out: Absolute IC50
Description: as §1

NCI-H1299 = experiment: CellTiter-Glo cell proliferation; conditions: CTG, 72 hours; for % inhibition at top conc.: highest concentration 10/50 μM; for IC50: read-out: Absolute IC50
Description: as §1

SK-N-FI = experiment: CellTiter-Glo cell proliferation; conditions: CTG, 72 hours; for % inhibition at top conc.: highest concentration 10/50 μM; for IC50: read-out: Absolute IC50
Description: as §1

786-O = experiment: CellTiter-Glo cell proliferation; conditions: 72 hours; for % inhibition at top conc.: highest concentration 10/50 μM; for IC50: read-out: Absolute IC50
Description: as §1

HT-1376 = experiment: CellTiter-Glo cell proliferation; conditions: CTG, 72 hours; for % inhibition at top conc.: highest concentration 10/50 μM; for IC50: read-out: Absolute IC50
Description: as §1

[1] = test system: mouse breast cancer cell 4T1; experiment: MTT tumor cell proliferation; conditions: Mus musculus, 72 h
Text: MTT colorimetric method was used to detect the inhibitory activity of a series of compounds (i.e. ZZY-001 to ZZY-016, a total of 16 kinds) of the embodiment of the present invention on the proliferation of tumor cells in vitro. The full name of MTT is 3-(4,5-dimethyl-2-thiazolyl)-2,5-diphenyl-2-H-tetrazolium romide, which is a yellow dye also known as thiazolyl blue. […] DMSO can dissolve Formazan deposited in cells and the absorbance value can be measured with a enzyme marker at a wavelength of 490 nm. In a certain range of cell number, the production of Formazan is proportional to the number of cells, so the number of living cells can be inferred according to the measured OD value.
The cell suspension was inoculated on a 96-well plate at 100 μl/well and cultured in a constant temperature CO2 incubator for 24 h. Then the tested drugs were added, 100 μl/well, and cultured for 72 h. MTT was added to a 96-well plate, 20 μl/well, and reacted for 4 h in the incubator. Absorb the supernatant, add DMSO, 150 μl/well and shake for 10 min on the plate shaker. The optical density (OD value) of each well was measured by enzyme marker at the wavelength of 490 nm.

N.N.[Cl][Pt][Cl] [Cisplatin, reference compound] was tested, and the “% inhibition at top conc.” value (U-937) was 99.97%, the IC50 (U-937) was 2190 nM and the “% inhibition at top conc.” value 5637 was 99.05%. For the same compound, the IC50 5637 was 2600 nM, the “% inhibition at top conc.” value (NCI-H1417) was 81.11% and the IC50 (NCI-H1417) was 4400 nM. The “% inhibition at top conc.” value (HL-60) was 99.99%, the IC50 (HL-60) was 1560 nM and the “% inhibition at top conc.” value (SK-MEL-28) was 99.34%. The IC50 (SK-MEL-28) was 8.61 µM, the “% inhibition at top conc.” value (143B) was 99.94% and the IC50 (143B) was 1150 nM. The “% inhibition at top conc.” value (EBC-1) was 85.11%, the IC50 (EBC-1) was 17.8 µM and the “% inhibition at top conc.” value (AMO-1; CTG) was 99.99%. For the same compound, the IC50 (AMO-1; CTG) was 950 nM, the “% inhibition at top conc.” value (H69AR) was 94.93% and the IC50 (H69AR) was 5.65 µM. For the same compound, the “% inhibition at top conc.” value (SNU-5) was 97.87%, the IC50 (SNU-5) was 2450 nM and the “% inhibition at top conc.” value (MIA PaCa-2) was 99.18%. For the same compound, the IC50 (MIA PaCa-2) was 6.05 µM, the “% inhibition at top conc.” value (SNU-761) was 99.92% and the IC50 (SNU-761) was 4.52 µM. For the same compound, the “% inhibition at top conc.” value (T84) was 87.03%, the IC50 (T84) was 5.05 µM and the “% inhibition at top conc.” value (PANC-1) was 94.45%. For the same compound, the IC50 (PANC-1) was 8.67 µM, the “% inhibition at top conc.” value (MOLM-13) was 99.99% and the IC50 (MOLM-13) was 770 nM. For the same compound, the “% inhibition at top conc.” value (CNE-2Z) was 96.44%, the IC50 (CNE-2Z) was 1180 nM and the “% inhibition at top conc.” value (Ramos) was 99.98%. The IC50 (Ramos) was 1780 nM, the “% inhibition at top conc.” value (NCI-H1299) was 98.91% and the IC50 (NCI-H1299) was 3.69 µM. The “% inhibition at top conc.” value (SK-N-FI) was 99.81%, the IC50 (SK-N-FI) was 10.2 µM and the “% inhibition at top conc.” value (786-O; CTG) was 97.88%. For the same compound, the IC50 (786-O; CTG) was 2.11 µM, the “% inhibition at top conc.” value (HT-1376) was 88.74% and the IC50 (HT-1376) was 4.1 µM.

For Cc1ccc(C(=O)Nc2cc(N3CCNCC3)ccc2-c2ccc(/C=C/C(=O)NO)cc2C)cc1.Cl [ZZY-003], the IC50 [1] was 2380 nM, the “% inhibition at top conc.” value (U-937) was 99.99% and the IC50 (U-937; Homo sapiens) was 460 nM. For the same compound, the “% inhibition at top conc.” value 5637 was 99.95%, the IC50 5637 was 820 nM and the “% inhibition at top conc.” value (NCI-H1417) was 97.14%. The IC50 (NCI-H1417; Homo sapiens) was 330 nM, the “% inhibition at top conc.” value (HL-60) was 99.93% and the IC50 (HL-60; Homo sapiens) was 310 nM. For the same compound, the “% inhibition at top conc.” value (SK-MEL-28) was 99.89%, the IC50 (SK-MEL-28; Homo sapiens) was 1.24 µM and the “% inhibition at top conc.” value (143B) was 99.97%. The IC50 (143B; Homo sapiens) was 2250 nM, the “% inhibition at top conc.” value (EBC-1) was 92.30% and the IC50 (EBC-1; Homo sapiens) was 1.15 µM. For the same compound, the “% inhibition at top conc.” value (AMO-1; CTG) was 99.95%, the IC50 (AMO-1; Homo sapiens, AMO1, CTG) was 1520 nM and the “% inhibition at top conc.” value (H69AR) was 96.23%. For the same compound, the IC50 (H69AR; Homo sapiens) was 4.36 µM, the “% inhibition at top conc.” value (SNU-5) was 99.83% and the IC50 (SNU-5; Homo sapiens) was 1640 nM. For the same compound, the “% inhibition at top conc.” value (MIA PaCa-2) was 99.94%, the IC50 (MIA PaCa-2; Homo sapiens) was 0.48 µM and the “% inhibition at top conc.” value (SNU-761) was 99.35%. For the same compound, the IC50 (SNU-761) was 9.32 µM, the “% inhibition at top conc.” value (T84) was 98.70% and the IC50 (T84; Homo sapiens) was 9.95 µM. The “% inhibition at top conc.” value (PANC-1) was 96.79%, the IC50 (PANC-1; Homo sapiens) was 5.84 µM and the “% inhibition at top conc.” value (MOLM-13) was 99.99%. The IC50 (MOLM-13; Homo sapiens) was 210 nM, the “% inhibition at top conc.” value (CNE-2Z) was 99.84% and the IC50 (CNE-2Z; Homo sapiens, CNE2Z) was 1520 nM. The “% inhibition at top conc.” value (Ramos) was 99.82%, the IC50 (Ramos; Homo sapiens) was 320 nM and the “% inhibition at top conc.” value (NCI-H1299) was 99.94%. For the same compound, the IC50 (NCI-H1299; Homo sapiens) was 3.4 µM, the “% inhibition at top conc.” value (SK-N-FI) was 99.95% and the IC50 (SK-N-FI; Homo sapiens) was 3.17 µM. For the same compound, the “% inhibition at top conc.” value (786-O; CTG) was 99.96%, the IC50 (786-O; Homo sapiens, 786-0, CTG) was 3.91 µM and the “% inhibition at top conc.” value (HT-1376) was 99.41%. It also gave an IC50 (HT-1376; Homo sapiens) of 2.28 µM.
